Data taken from patent publication US20250270648A1, “MOLECULAR SIGNATURE FOR ASSESSING THE RESPONSIVENESS OF CANCER TO MITOCHONDRIA-TARGETED ANTIOXIDANTS” (UNIVERSITÉ CATHOLIQUE DE LOUVAIN, priority 2021, published 2025).

Columns and labels:
[1] = tested on: human MCF7 breast cancer cells; test: Seahorse XF96 OCR and proton leak; assay type: cell-based; conditions: 24 h
Experimental: (§1) Cellular oxygen consumption rates (OCRs) were assessed on a Seahorse XF96® bioenergetic analyzer using the Mito Stress® Kit following manufacturer's instructions (Agilent Technologies®). Briefly, 40,000 cells were plated and left to adhere for 24 h before treatment with the indicated doses DXR. Basal mitochondrial oxygen consumption (mtOCR) was identified as the portion of OCR sensitive to 0.5 μM of Complex I inhibitor rotenone together with 0.5 μM of Complex III inhibitor antimycin A. Proton leak corresponded to the portion of mtOCR resistant to 1 μM of ATP synthase inhibitor oligomycin. Maximal OCR was determined after mitochondrial potential disruption using 1 μM of ionophore carbonyl cyanide-4-(trifluoromethoxy)phenylhydrazone (FCCP). At the end of the experiment, cells were lysed in 30 μl of NaOH 0.5 M, and proteins were quantified with the Bradford method in order to normalize data by total protein content. Lactate and glucose concentrations were measured on deproteinized cell supernatants using an ISCUSflex CMA600™ analyzer (Aurora Borealis®), as previously described (Sonveaux et al.; PLoS. One 2012; 7, e33418).

[2] = tested on: murine 4T1 breast cancer cells; test: Seahorse XF96 OCR and proton leak; assay type: cell-based, mouse; conditions: 24 h
Experimental: as §1

[3] = tested on: MCF7 cells; test: Glucose uptake and lactate release, enzymatic; assay type: cell-based, human; conditions: 24 h
Experimental: as §1

[4] = tested on: 4T1 cells; test: Glucose uptake and lactate release, enzymatic; assay type: cell-based, mouse; conditions: DXR 0.1 μg/mL, 24 h
Experimental: as §1

[5] = tested on: MCF7 cells; test: Mitochondrial superoxide, mitoSOX FACS; assay type: cell-based, human; conditions: DXR 0.1 μg/mL, 24 h
Experimental: (§2) Mitochondrial superoxide was measured in cells loaded with 3 μM of MitoSOX (Invitrogen®, catalogue #M36008) for 10 min at 37° C. Cells were gently detached with Accutase® (Thermo Fisher Scientific®, catalogue #A1110501), resuspended in PBS containing 10 mM of D-Glucose and 2% FBS, and immediately analyzed by flow cytometry using a FACSCantoII flow cytometer (BD Biosciences®).

[6] = tested on: murine 4T1 breast cancer cell line; test: Mitochondrial superoxide, mitoSOX FACS; assay type: cell-based, mouse
Experimental: as §2

[7] = tested on: MCF7 cells; test: Migration towards 0.5% serum, chemotaxis chamber; assay type: cell-based, human; conditions: low dose DXR, 0.1 μg/mL, 16 h pretreatment, 6 h recovery
Experimental: (§3) Previous to migration and invasion assays, cells were pretreated with the indicated amounts of drugs for 16 h, and left to recover for 6 h in full culture medium. Migration assays were performed in a NeuroProbe® standard 48-well chemotaxis chamber according to manufacturer's instructions. Briefly, the bottom chamber was filled with DMEM containing 0.5% serum as a chemo-attractant. Fifty thousand cells were seeded in the upper chamber in the same medium but without serum ±MitoQ where indicated, and allowed to migrate overnight through an 8-μm pore-size polycarbonate membrane. A similar stimulation protocol was used for invasion assays, with the difference of using Matrigel-coated transwells (Corning®). With MCF7 cells, membranes were previously incubated for 30 min with a solution of Vitronectin 10 μg/ml (Sigma-Aldrich®, #SRP3186). Migrated/invaded cells were fixed and stained with 100 μl of a 0.23% crystal violet solution (Sigma-Aldrich®, #C0775) for 10 min before counting on a SpectraMax™ i3 spectrophotometer equipped with a MiniMax imaging cytometer, using the SoftMax Pro software. Data were normalized to vehicle-treated cells (control).

[8] = tested on: 4T1 cells; test: Migration towards 0.5% serum, chemotaxis chamber; assay type: cell-based, mouse; conditions: 16 h pretreatment, 6 h recovery
Experimental: as §3

[9] = tested on: 4T1 cells; test: Invasion, Matrigel-coated transwells; assay type: cell-based, mouse; conditions: low dose DXR, 0.1 μg/mL, 16 h pretreatment, 6 h recovery
Experimental: as §3

[10] = tested on: 4T1 breast tumors; test: 4T1-bearing mice, doxorubicin ±MitoTEMPO; assay type: in vivo, mouse; conditions: doxorubicin 4 mg/kg i.v. weekly ×3 + MitoTEMPO 0.7 mg/kg i.p. daily; lungs day +21
Experimental: On day −8, nine-week-old female Balb/cJRj mice (Janvier®) were injected with 200,000 viable 4T1 cells into the fourth mammary fat pad. When tumors reached an average diameter of 4 mm (day 0) and became palpable in all mice, an intravenous injection of doxorubicin (4 mg/kg) was administered once per week during 3 weeks (30) ±daily intraperitoneal injections of MitoTEMPO (0.7 mg/kg) or the same volume of vehicle (DMSO) until the end of the experiment. Tumor volume was determined three times a week using an electronic caliper and normalized to tumor volume at day 0. At the end-point (day +21), mice were sacrificed and their lungs were fixed in formalin. Tissues were stained with hematoxylin & eosin (H&E). Pictures of whole lung slides were acquired with a slide scanner (SCN400, Leica®) and analyzed with the Digital Image Hub software (DIH, Leica®). The area occupied by metastases was normalized to the lung area analyzed.

[11] = tested on: MDA-MB-231 cells; test: RT-qPCR of biomarker signature after SKQ1; assay type: cell-based, human; conditions: 500 nM SKQ1, 48 h
Experimental: (§4) Total mRNA from MDA-MB-231 or SkBr-3 human breast cancer cells treated ±500 nM SKQ1 for 48 h (Alexandr V. et al. Int. J. Cancer 2016; 139, 130-139) was extracted using the Tri reagent (Brunschwig Chemie®, cat #TR118). mRNAs were quantified by NanoDrop™1000 (Thermo Fisher Scientific®), and were reverse-transcribed in complementary DNAs using the high-capacity cDNA Reverse Transcription Kit (Thermo Fisher Scientific®, cat #4368814) according to manufacturer's protocol. Complementary DNAs (500 ng per sample) were amplified by RT-qPCR using the ROX SYBR Master Mix dTTP Blue (Eurogentec®) and primers listed in Table 5 and Table 6 on a CFX96 Real Time PCR system (BioRad®). Gene expression was normalized to […] gene expression.

[12] = tested on: SkBr3 cells; test: RT-qPCR of biomarker signature after SKQ1; assay type: cell-based, human; conditions: 500 nM SKQ1, 48 h
Experimental: as §4

[13] = tested on: MDA-MB-436 cells; test: RT-qPCR of biomarker signature after SKQ1; assay type: cell-based, human; conditions: 500 nM SKQ1, 48 h
[14] = tested on: human MDA-MB-231 breast cancer cell line; test: Mitochondrial superoxide, mitoSOX FACS; assay type: cell-based; conditions: increasing doses of cisplatin, 48 h
Experimental: as §2

## COc1cccc2c1C(=O)c1c(O)c3c(c(O)c1C2=O)C[C@@](O)(C(=O)CO)C[C@@H]3O[C@H]1C[C@H](N)[C@H](O)[C@H](C)O1 [doxorubicin]
[1]; DXR low doses, 0.1 to 0.01 μg/mL
  mitochondrial oxygen consumption rate (mtOCR): increased
[1]; increasing doses of DXR
  leak of protons at the electron transport chain (ETC): dose dependent leak
[2]; Low-dose DXR
  mtOCR: increased
[2]; increasing doses of DXR
  leak of protons at the electron transport chain (ETC): dose dependent leak
[3]; DXR 0.1 μg/mL
  glucose uptake: significantly increasing
[3]; DXR 0.1 to 0.01 μg/mL range
  glycolysis: little effect
[4]
  glycolysis: little effect
  lactate release: significantly decreasing
[5]
  production of mitochondrial superoxide at the ETC: increased production
[6]; DXR 0.1 μg/mL, 24 h
  production of mitochondrial superoxide at the ETC: increased production
[7]
  cell migration: stimulated
[8]; low dose DXR, 0.1 μg/mL
  cell migration: stimulated
[9]
  cell invasion: stimulated

## CC1(C)CC(NC(=O)C[P+](c2ccccc2)(c2ccccc2)c2ccccc2)CC(C)(C)N1[O] [MitoTEMPO]
[10]
  cancer metastasis in breast cancer-bearing animals treated with DXR: inhibit

## CC1=C(C)C(=O)C(CCCCCCCCCC[P+](c2ccccc2)(c2ccccc2)c2ccccc2)=CC1=O.[Br-] [SKQ1, [10-(4,5-dimethyl-3,6-dioxo-1,4-cyclohexadien-1-yl)decyl]triphenyl-phosphonium, monobromide]
[11]
  amplitude of the change in NUPR1 expression: +676%
  amplitude of the change in SERPIN1 expression: +63%
  amplitude of the change in SNAI1 expression: −21%
  amplitude of the change in SOX2 expression: −52%
  genes of the complete biomarker signature with the expected gene expression changes: 12 of the 15
[11]; P<0.005
  PHGDH-1 expression increased by: 5.36 fold
  PSAT1 expression increased by: 3.43 fold
  SLC7A11 expression increased by: 2.35 fold
  TXNRD1 expression increased by: 1.69 fold
  gene expression of ASNS: increased
  gene expression of G6PD: increased
  gene expression of NUPR1: increased
  gene expression of PCK2: increased
  gene expression of SLC6A9: increased
  gene expression of SOX2: decreased
[11]; P<0.01
  SERPINE1 expression increased by: 1.63 fold
[11]; among 12 genes
  expected gene expression changes that were statistically significant: 11
[11]; not significant, P=0.4575
  gene expression of SNAI1: decreased
[12]
  amplitude of the change in NUPR1 expression: +25%
  amplitude of the change in SLC7A11 expression: +565%
  amplitude of the change in SOX2 expression: −95%
  amplitude of the change in VIM expression: −19%
  genes of the complete biomarker signature with the expected gene expression changes: 13 of the 15
[12]; P<0.005
  SLC7A11 expression increased by: 6.65 fold
  TXNRD1 expression increased by: 3.20 fold
  gene expression of PCK2: increased
  gene expression of SOX2: decreased
[12]; P<0.01
  PHGDH-1 expression increased by: 2.26 fold
  PSAT1 expression increased by: 2.26 fold
  gene expression of ASNS: increased
[12]; P<0.05
  gene expression of ZEB1: decreased
[12]; P=0.0732
  SERPINE1 expression increased by: 1.45 fold
[12]; among 13 genes
  expected gene expression changes that were statistically significant: 8
[12]; not significant, P=0.1539
  gene expression of NANOG: decreased
[12]; not significant, P=0.2615
  gene expression of NUPR1: increased
[12]; not significant, P=0.3557
  gene expression of VIM: decreased
[12]; only 2 replicates
  gene expression of G6PD: increased
[13]
  amplitude of the change in ASNS expression: +526%
  amplitude of the change in G6PD expression: +22%
  amplitude of the change in SNAI1 expression: −12%
  amplitude of the change in SOX2 expression: −67%
  genes of the complete biomarker signature with the expected gene expression changes: 14 of the 15
[13]; P<0.005
  PHGDH-1 expression increased by: 2.51 fold
  PSAT1 expression increased by: 2.53 fold
  TXNRD1 expression increased by: 2.11 fold
  gene expression of ASNS: increased
  gene expression of NUPR1: increased
  gene expression of PCK2: increased
  gene expression of SLC6A9: increased
[13]; P<0.01
  SERPINE1 expression increased by: 1.46 fold
  SLC7A11 expression increased by: 3.60 fold
[13]; P<0.05
  gene expression of SOX2: decreased
[13]; among 14 genes
  expected gene expression changes that were statistically significant: 10
[13]; not significant, P=0.0974
  gene expression of G6PD: increased
[13]; not significant, P=0.5663
  gene expression of NANOG: decreased
[13]; not significant, P=0.6013
  gene expression of SNAI1: decreased
[13]; not significant, P=0.6890
  gene expression of ZEB1: decreased

## N.N.[Cl][Pt][Cl] [cisplatin]
[6]; increasing doses of cisplatin, 48 h
  mitochondrial superoxide production at the ETC: induce
[14]
  mitochondrial superoxide production at the ETC: induce
[8]; cisplatin 77.76 μM
  cancer cell migration: induced
